*1 amine or outer side, *2 acyl side, *3 side chain or, on linkers, in order; H or OH if unused. Where a SMILES comes first, the peptide text is derived from it. Bridges are numbered along the chain shown (N, C = ends). X1 = O=C(CCC[*:2])[*:1]

For one series, the system named is rats. The series is described as follows: Anxiolytic effect, elevated plus-maze assay. Type of series: in vivo. As to the method:
The anxiolytic effect of carbetocin and oxytocin was tested using the elevated plus-maze assay in rats as described in Holmes, A., et al., Behav. Neurosci. 115(5):1129-44, 2001. See also Sahuque, L., et al., Psychopharmacology 186(1):122-132, Berl, 2006; Carvalho, M. C., et al., Braz. Med. Biol. Res. 38(12):1857-66, 2005; and Langen, B., et al., J. Pharmacol. Exp. Ther. 314:717-724, 2005. Alprazolam, a known anxiety drug, was also included in the study. Sixty male, 6-10 week old experimentally naïve rats obtained from the Charles River laboratories were divided into six groups of ten animals each. All animals were maintained in compliance with the standards of the National Research Council and were fed certified rodent diet (Teklad, Madison, Wis.) and water ad libitum. The animals were housed in a dedicated study room with 12 hour light/12 hour dark at RT 18 to 26° C. and 30-70% humidity. Study animals were acclimated to their housing for at least 5 days prior to the first day of dosing. Routes of administration included intracerebroventricular (ICV), intraperitoneal (IP), or intramuscular (IM).
For the anxiolytic study, all groups were dosed by injection with formulations that contained the appropriate API in 0.9% saline solution. Alprazolam was an oral solution dosage form and diluted to the desired concentration in 0.9% saline for the anxiolytic study, Alprazolam Intensol™ Oral Solution (Concentrate) 1 mg/ml (each ml contains 1 mg Alprazolam).
The dosing preparations were administered once to each rat as a bolus. In the ICV administration group, test doses were administered into the lateral ventricle through a port in the already implanted ICV cannula. Testing was conducted 20 minutes after ICV and 30 minutes after IM and IP. The animals were tested for 15 minutes on the maze immediately following transport from the home cage.
The elevated plus maze consisted of a platform with 4 arms, two open and two closed (50×10×50 cm enclosed with an open roof). Rats were tested two at a time and placed by hand in the center of the platform of two separate mazes, at the crossroad of the 4 arms, facing one of the open arms. After fifteen minutes, the first rat was left for a few seconds until the second rat's fifteen minutes was completed. The rats were monitored remotely.
Prior to each rat's test, the plus-maze surfaces and closed sides were cleaned. Rats were handled by gloved hands. The time from removal from the home cage to start of testing was less than 15 seconds. Rats were gently removed from the home cage and placed onto the center square between the open and closed arms, and facing the opposite open arm. The rats were facing away from the experimenter. The experimenter moved away from the maze to an area not visible to the rat(s) and viewed the rat(s) via television monitor. At the end of the test the recorder was stopped and the rat(s) removed from the maze.
The rats were evaluated for time spent in open arm exploration (Open Time), time spent in closed arm exploration (Closed Time) and scored for anxiety according to the percent of time spent in open arm exploration ([time spent in open arms/time spent in open arms+time spent in closed arms×100]) (Open Time %); the absolute time spent in open arm exploration; and the percent of open arm entries ([number of open arm entries/number of open arm entries+number of closed arm entries]×100). The number of total arm entries was used as a measure of overall locomotor activity. The scores were compared to the vehicle controls and to the baseline using one-way ANOVA followed by the appropriate post-hoc test (Bonferroni/Dunnets) and a p<0.05 was considered to be statistically significant.

Series [1] concerns tracheal/bronchial epithelial cell membrane inserts (EpiAirway). The series is described as follows: Transepithelial electrical resistance (TER). Type of series: cell-based. To be noted: Rabbit Pharmacokinetic Study 3 formulations. Here is the method:
Tracheal/bronchial epithelial cell membrane inserts (EpiAirway, MatTek Corp., Ashland, Mass.) were received the day before the experiment. Each tissue insert was placed in a well of a 6 well plate which contained 0.9 ml of serum free media and cultured at 37° C. for 24 hours to allow the tissues to equilibrate. The day of the experiment, transepithelial electrical resistance measurements were taken for each insert using a Tissue Resistance Measurement Chamber connected to an Epithelial Voltohmeter (World Precision Instruments, Inc., Sarasota, Fla.).
(§1) 200 μl of fresh media was gently added to each tissue insert in the 24 well plate and the plate was placed no a shaker table at room temperature for 5 minutes. 150 μl of apical solution was removed from each insert and reserved for a […] dehydrogenase assay. The inserts were then washed with 300 μl of media; 300 μl of new media was added to each insert, the inserts were incubated for 20 minutes at room temperature and the transepithelial electrical resistance was measured.

For series [2] the test system is unchanged. The series is described as follows: Cell viability, MTT assay. It is filed as cell-based. The note with it: Rabbit Pharmacokinetic Study 3 formulations. Here is the method:
Cell viability was assessed using an MTT assay kit (MatTek Corp., Ashland, Mass.). MTT concentrate was thawed and diluted with media at a ratio of 2 ml MTT:8 ml media. 300 μl MTT-media mix was added to each well of a 24 well plate. Tissue culture inserts were drained and transferred to the MTT containing well and incubated at 37° C. in the dark for three hours. After incubation, each insert was removed from the plate, and then immersed in the wells of a fresh 24-well plate containing 2 ml extractant solution. The plate was then covered and incubated overnight at room temperature in the dark. The liquid in each insert was then decanted back into the well from which it was taken and the insert was discarded. 50 μl of the exractant solution from each well was then pipetted in triplicate into a 96 well plate and diluted with the addition of 150 μl of fresh extractant solution. The optical density of the samples was then measured at 550 nm on a Spectramax plate reader (Molecular Devices, Sunnyvale, Calif.) using SpectraPro software.

The test system is the same in series [3]. The series is described as follows: Cytotoxicity, LDH assay (apical and basolateral). It is filed as cell-based. To be noted: Rabbit Pharmacokinetic Study 3 formulations. As to the method:
as §1
The inserts are then transferred into a new 24 well plate containing no media and the appropriate amount of media was added to the apical surface in order to total 300 μl. The inserts were then shaken for five minutes at 100 RPM at room temperature. 50-100 μl of the apical media were then removed, placed in […] and kept at 2-8° C. until needed.
The samples were then centrifuged at 1000 rpm for 5 minutes. 2 μl of the supernatant was removed and added to a 96 well plate. 48 μl of media was then used to dilute the supernatant to make a 25× dilution and each sample was assayed in triplicate for LDH loss using a CytoTox 96 Cytotoixcity Assay Kit (Promega Corp., Madison, Wis.).
For analysis of the basolateral media, 50 μl of the reserved 150 μl solution was loaded into a 96 well assay plate and assayed in triplicate.

The conditions of series [4]: human, in vivo, inhaled or intranasal, 150 ug.
Description: (§2) In this second clinical trial, three concentrations of carbetocin were manufactured based on the formulation disclosed in Table 38 in order to provide a carbetocin dose of 150 μg, 250 μg, and 400 μg. Blood samples for PK analysis of carbetocin and oxytocin levels were collected in EDTA coated blood collection tubes from patients. Aprotinin was immediately added and the samples were centrifuged to obtain plasma samples. Intranasal (IN) formulation of carbetocin were dosed using a 100 μl actuator in 12 healthy, human subjects at three strengths (1.5, 2.5, and 4.0 mg/ml) and compared to intramuscular (IM) dose of Duratocin® (Carbetocin Injection). An additional comparison to the commercially available version of intranasal oxytocin (Syntocinon Spray®) was also conducted. Blood samples were taken periodically between t=0 (predose) and 6 hrs.
A short description of the next series: in vivo. The note with it: rabbit, inhaled or intranasal, 60 ug.
The nature of series [5]: clinical. The note with it: human, in vivo; for AUC(0-t) / Tmax: inhaled or intranasal.
Description: In this human clinical study (cross-over, dose escalating), the intranasal (IN) formulation of carbetocin was administered (a single dose) to 12 healthy human subjects (18-65 years old) at three strengths (150, 300, and 500 μg per dose) and compared to the 50 μg dose of Duratocin® administered by intramuscular injection (IM). Blood samples were taken periodically between t=0 (predose) and 6 hrs after dosing.
The nature of series [6]: clinical. The note with it: human, in vivo; for Cmax / Tmax / AUC(0-t): inhaled or intranasal.
Description: as §2
The conditions of series [7]: in vivo; cited from earlier work.
[8] abbreviates: IP route, tested 30 minutes after dosing.
Where [9] appears, read: ICV route, tested 20 minutes after dosing.
Where [10] appears, read: IM route, tested 30 minutes after dosing.

Description for in vivo: In this Example, eight groups of rabbits were dosed with the formulations presented in Table 34; group 1 received intramuscular (IM) carbetocin injection at 30 μg dose, while the remaining 7 groups received the 60 μg doses of intranasal (IN) carbetocin nasal spray formulations.
Briefly, in this rabbit PK study 3, Group 1 represents a control intramuscular injection; Group 2 represents a formulation used for our first human clinical study. […] In context with formulation #5, the design of this experiment is intended to further confirm the effect of CMC-LV on BA.
For this experiment, 25 ml of each intranasal (IN) formulation was prepared. All IN formulations were stored in 3×1 ml aliquots in 1cc amber glass bottles. Also, 400 ml of the intramuscular (IM) formulation was prepared and stored in 3×3 mL aliquots in 3 cc clear glass bottles. All formulations were stored at 2-8° C.

Regarding `Cc1nnc2n1-c1ccc(Cl)cc1C(c1ccccc1)=NC2` [Alprazolam], in the series with rats (setting [8]), the “Closed Time” value stood at 116.55, the “Open Time” value stood at 46.07 and the “Open Time (%)” value is 27.9%.

Turning to Triton, the “TER T = 0” value in series [1] (T = 0) stood at 504.4 ohm × cm^2. Further, the “TER T = 60 min” value in series [1] (T = 60 min) turned out to be 0.2 ohm × cm^2. Further, in [2], the MTT % is given as 1.4%. For the same molecule, in series [3] (apical), the “Apical LDII %” value came to 100.0%. In addition, the “Basolateral LDH %” value in series [3] (basolateral) is 100.0%.

`CC[C@H](C)[C@@H]1NC(=O)[C@H](Cc2ccc(OC)cc2)NC(=O)CCCSC[C@@H](C(=O)N2CCC[C@H]2C(=O)N[C@@H](CC(C)C)C(=O)NCC(N)=O)NC(=O)[C@H](CC(N)=O)NC(=O)[C@H](CCC(N)=O)NC1=O` [carbetocin, 1-butanoic acid-2-(O-methyl-L-tyrosine)-1-carbaoxytocin] (Y(Me)IQNCPLG-NH2; linker N-5 via X1 (inferred)): the AUClast in series [4] is reported as 13697 (121) min*pg/ml. Further, the F rel in “in vivo” was ~9%. The peak concentration (Cmax) in the series “clinical [5]” (150 ug) stood at 0.32 ng/mL; in the series “clinical [5]” (300 ug), 0.43 ng/mL; in “clinical [5]” (500 ug), 0.74 ng/mL; in the series “clinical [6]” (150 ug), 0.222 ng/mL; in the series “clinical [6]” (250 ug) it was 0.377 ng/mL; in “clinical [6]” (400 ug), 0.608 ng/mL. In addition, the figures for the half-life in “clinical [5]” (150 ug), in “clinical [5]” (300 ug) and in “clinical [5]” (500 ug) were 33 min, 46 min and 42 min, respectively. In addition, the bioavailability in the series “clinical [5]” (im, Bioavailability) turned out to be 6%; in the series “clinical [6]” (150 ug) it was 7%; in the series “clinical [6]” (250 ug) it was 6%; in “clinical [6]” (400 ug), 7%. Further, the AUC(0-t) in the series “clinical [5]” (150 ug) is 0.2 ng·h/mL; in the series “clinical [5]” (300 ug), 0.25 ng·h/mL; in the series “clinical [5]” (500 ug), 0.717 ng·h/mL; in the series “clinical [6]” (250 ug), 0.302 ng·h/mL; in “clinical [6]” (400 ug), 0.542 ng·h/mL. In addition, the Tmax in the series “clinical [5]” (300 ug) was 10 min; in “clinical [5]” (500 ug), 18.6 min; in the series “clinical [6]” (150 ug) it was 15 min; in “clinical [6]” (250 ug) it was 18 min; in “clinical [6]” (400 ug) it was 13 min. In addition, the “half-life relative to that of oxytocin” value in series [7] is recorded as 4-10 times.

Turning to `CC[C@H](C)[C@@H]1NC(=O)[C@H](Cc2ccc(O)cc2)NC(=O)[C@@H](N)CSSC[C@@H](C(=O)N2CCC[C@H]2C(=O)N[C@@H](CC(C)C)C(=O)NCC(N)=O)NC(=O)[C@H](CC(N)=O)NC(=O)[C@H](CCC(N)=O)NC1=O` [Oxytocin], in the series with rats (setting [9]), the “Closed Time” value is 158.42, the “Open Time” value is 17.89 and the “Open Time (%)” value amounted to 11.3%. In addition, in the series on rats (setting [10]), the “Closed Time” value was 159.47, the “Open Time” value is recorded as 14.54 and the “Open Time (%)” value amounted to 8.6%.

Usually Cmax stands for the maximum level reached in the sampled fluid or tissue. As a reminder, the half-life is the time needed for the level to fall by half in the phase considered. The low end stands for rapid decline, the high end for slow decline. Broadly, the bioavailability is dose-corrected exposure relative to a reference, in per cent. Higher therefore signals good availability. By AUC(0-t) is commonly meant the area under the concentration-time curve up to a stated or last time point. Read a low AUC(0-t) as low exposure. Usually Tmax stands for the time at which the peak concentration occurs.
